Reference: US7214534B2, “Isolated nucleic acid molecules encoding mutant μ opioid receptors” (Regents of the University of Minnesota, priority 2002, dated 2007)
Where “and” joins values, the source holds several entries; their conditions need not be identical. Equal entries are not always repeated.

Experiments:
[1] = biological target: T1, μ opioid receptor (wild-type) (Mus musculus, UniProt P42866); assay: [3H]DAMGO saturation binding (Scatchard analysis), brain membranes of wild-type mice
T1 construct: Brain membranes were prepared from both wild-type mice; from tissue; host or cells: mouse brain membranes (wild-type littermates)
Method: (§1) Approximately 200–350 μg of membranes were used in each assay.

[2] = biological target: T2, μ opioid receptor S196A mutant (Mus musculus, UniProt P42866, S196A); assay: [3H]DAMGO saturation binding (Scatchard analysis), brain membranes of homozygous Cre/S196A mice; details: listed as [^3H]DAMGO
T2 construct: brain membranes from homozygous Cre/S196A (HOMO) mutant mice; from tissue; host or cells: brain membranes of homozygous Cre/S196A knock-in mice
Method: as §1

[3] = test system: Cre/S196A mice; assay: Tail withdrawal antinociception test, Cre/S196A mutant mice; details: for ED50: Mus musculus, radiant heat
Method: (§2) For tail withdrawal testing, mice were loosely wrapped in an adsorbent towel, and their tails were immersed about 2 cm into water heated to 53° C. or placed under radiant heat. The latency to tail withdrawal was recorded. A cut-off time of 24 seconds for warm water or 12 seconds for radiant heat was used to minimize tail damage. […] Percent maximum possible effects (% MPE) were calculated by the following formula: (measured latency−baseline latency)*100/(cut-off time−baseline latency). Each dose for each genotype involved 8–12 mice. ED50 values were derived from regression analysis on the linear portion of each dose-response curve or calculated by non-linear regression. A two way analysis of variance (ANOVA) (genotype and dose) was used to determine genetic differences among genotypes in the same dose groups.

[4] = test system: wild-type mice; assay: Tail withdrawal antinociception test, wild-type mice; type: in vivo, mouse; details: for ED50: Mus musculus, 0.5 h, read-out: ED50 tail withdrawal
Method: as §2

[5] = test system: Cre/S196A mice; assay: Acetic acid-induced writhing inhibition test, Cre/S196A mutant mice; type: in vivo, mouse; details: for ED50: Mus musculus, ip, 0.6% acetic acid i.p.
Method: (§3) Writhing tests were conducted as follows. […] Writhing was counted for 20 minutes following the i.p. injection. At the same time, mice from each genotype were injected with saline s.c. plus acetic acid i.p., and the mean count of writhing of the saline group was calculated. The % MPE for writhing test was calculated by the following formula: (mean count of saline group−count of drug group)*100/(mean count of saline group).

[6] = test system: wild-type mice; assay: Acetic acid-induced writhing inhibition test, wild-type mice; type: in vivo, mouse; details: for ED50: Mus musculus, ip, 0.6% acetic acid i.p.
Method: as §3

[7] = test system: μ opioid receptor knockout mice; assay: Nalorphine antinociception in μ opioid receptor knockout mice; type: in vivo, mouse; details: μ opioid receptor knockout mice (data not shown)
[8] = read-out: ED50 tail withdrawal, homozygous Cre/S196A mice, 30 minutes after morphine and nalorphine, 12 minutes after naloxone injection

T2 sequence (P42866 whole entry S196A): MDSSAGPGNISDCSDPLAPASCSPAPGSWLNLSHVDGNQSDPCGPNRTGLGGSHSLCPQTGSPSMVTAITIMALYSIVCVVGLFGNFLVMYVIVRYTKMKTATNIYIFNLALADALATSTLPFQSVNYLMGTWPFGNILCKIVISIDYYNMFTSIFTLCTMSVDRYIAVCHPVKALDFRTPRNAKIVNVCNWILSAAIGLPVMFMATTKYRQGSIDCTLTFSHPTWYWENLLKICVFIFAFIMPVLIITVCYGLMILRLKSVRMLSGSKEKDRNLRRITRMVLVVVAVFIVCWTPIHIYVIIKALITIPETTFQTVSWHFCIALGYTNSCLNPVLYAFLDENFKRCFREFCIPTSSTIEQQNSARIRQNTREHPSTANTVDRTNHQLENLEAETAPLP
T1 sequence (P42866 whole entry): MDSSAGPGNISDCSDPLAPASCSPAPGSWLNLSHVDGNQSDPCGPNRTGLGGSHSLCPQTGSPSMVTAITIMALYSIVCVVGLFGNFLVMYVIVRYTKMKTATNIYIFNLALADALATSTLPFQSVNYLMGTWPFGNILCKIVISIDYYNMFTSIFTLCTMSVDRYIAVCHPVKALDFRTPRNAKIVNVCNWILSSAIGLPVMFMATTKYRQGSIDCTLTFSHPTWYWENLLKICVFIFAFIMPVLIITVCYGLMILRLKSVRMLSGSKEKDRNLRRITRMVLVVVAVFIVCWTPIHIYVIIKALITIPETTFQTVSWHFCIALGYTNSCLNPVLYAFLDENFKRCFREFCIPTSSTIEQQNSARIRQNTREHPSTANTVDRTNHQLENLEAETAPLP

C[C@@H](NC(=O)[C@@H](N)Cc1ccc(O)cc1)C(=O)NCC(=O)N(C)[C@@H](Cc1ccccc1)C(=O)NCCO [DAMGO, [D-Ala^1.N-McPhe^4.Gly^5-ol]enkephalin]
Bmax [1]: 113±4.3 fmole/mg-protein
Bmax [2]: 17.5±2.3 fmol/mg protein and 17.5 fmol/mg protein

CN1CC[C@]23c4c5ccc(O)c4O[C@H]2[C@@H](O)C=C[C@H]3[C@H]1C5 [morphine]
ED50 ([3]; read-out: ED50 tail withdrawal, heterozygous Cre/S196A mice): 3.47 mg/kg
ED50 [3, 8]: 3.2 mg/kg
ED50 [4]: 4.4 mg/kg
ED50 ([5]; heterozygous Cre/S196A mice): 0.68 mg/kg
ED50 ([5]; homozygous Cre/S196A mice): 0.5 mg/kg
ED50 [6]: 0.48 mg/kg

C=CCN1CC[C@]23c4c5ccc(O)c4O[C@H]2[C@@H](O)C=C[C@H]3[C@H]1C5 [nalorphine]
ED50 [3, 8]: 0.89 mg/kg
antinociceptive response, of the morphine maximal response, tail withdrawal ([3]; homozygous Cre/S196A mice, maximal dose tested, 10 mg/kg): 68±5%
ED50 [4]: 0.61 mg/kg
maximal response, of the maximal morphine response, tail withdrawal ([4]; wild-type mice): 24±5%
ED50 ([5]; homozygous Cre/S196A mice): 0.27 mg/kg
maximal antinociceptive response compared with morphine, inhibition of writhing ([5]; homozygous Cre/S196A mice, dose of 1 mg/kg): same maximal antinociceptive response as morphine
antinociceptive effect [7]: absence of nalorphine effect
maximal response, of the maximal morphine response, writhing [6]: 44±3%
ED50 [6]: 0.37 mg/kg

C=CCN1CC[C@]23c4c5ccc(O)c4O[C@H]2C(=O)CC[C@@]3(O)[C@H]1C5 [naloxone]
ED50 [3, 8]: 1.32 mg/kg
toxic effects ([3]; both the mutant and the wild-type mice at higher dosages): increasing toxic effects
antinociceptive response, tail withdrawal ([4]; wild-type mice, doses of 0.1 to 10 mg/kg): did not produce significant antinociceptive responses
maximal response, of that observed with morphine, writhing inhibition ([5]; Cre/S196A mice): 45±3
ED50 ([5]; homozygous Cre/S196A mice): 0.22 mg/kg
antinociceptive response, writhing ([6]; doses of 0.1 to 10 mg/kg): did not produce significant antinociceptive responses
